The subject of assay [1] is AngII-stimulated mouse cardiomyocytes. Description: RNA-Seq of AngII-stimulated cardiomyocytes treated with ldCil, comparison with human heart data. It counts as cell-based. The procedure:
Primary mouse cardiomyocytes were isolated from the whole hearts of 1-3-day old C57/BL6 wild-type mice. Hearts were dissected and removed from the thoracic cavity, mechanically minced with scissors and digested in cardiomyocyte isolation enzyme 1 (200 μl per heart) and cardiomyocyte isolation enzyme 2 (10 μl per heart) (Pierce primary cardiomyocyte isolation kit, Thermo Scientific). Digested hearts were then homogenised by gently pipetting up to 30 times with a 1 ml pipette, and the resulting single cell suspension added to complete DMEM solution (DMEM, 10% FBS, 1% Penicillin Streptomycin stock solution). After combination of all cell suspensions, the total number of viable cells were counted, and plated at approximately 1 million cells per single well of a 6 well plate. The following day, wells were washed with PBS (without calcium and magnesium), and complete cardiomyocyte growth medium added. Complete cardiomyocyte medium thereafter was replaced every other day.
Following 5 days culture at 37° C., 5% CO2, primary mouse cardiomyocytes were serum starved for 24 h in a 0.5 FBS-DMEM media. On day 6 cells were washed and refed with complete cardiomyocyte growth medium plus or minus 1 μM angiotensin II (Alfa Aesar), and this was repeated on day 7. In tandem to angiotensin II treatment, cells were either treated with vehicle or low dose Cilengitide (20 nM) (Bachem). On 8-day cardiomyocytes were lysed for RNA analysis.
Medium was removed and cells were washed 3 times in PBS. 350 μl RLT lysis buffer (Qiagen) (plus 1:100 beta-mercaptoethanol) was added to each well to disrupt and lyse the cells. Cell lysate samples were then combined with an equal volume of 70% ethanol, before RNA was extracted according to the manufacturer's instructions, before being stored at −80° C. until required. For whole hearts, less than 100 mg of tissue was lysed with 700 μl RLT lysis buffer (Qiagen) (supplemented 1:100 beta-mercaptoethanol) in a QIAshredder (Qiagen) for 10 min. Tissues were then processed as above with the RNeasy mini kit.
RNA-Seq was performed by Barts and the London Genome Centre on the Illumina NextSeq 500 platform, generating on average ˜15-17 million paired-end reads of 76 bp in length per sample. After quality check using FastQC, raw reads were mapped to the mouse genome (mm10, Genome Reference Consortium GRCm38) in the strand-specific mode using HISAT2 (65). Number of uniquely aligned reads (q>10) to the exonic region of each gene were counted using HTSeq (66) based on the GenCode annotation version M16 (Ensembl v91). Only genes that achieved at least one read count per million reads (cpm) in at least four samples (i.e., number of samples per group) were kept. Conditional quantile normalisation (cqn) was then performed accounting for gene length and GC content, and a log2 transformed reads per kilobase of transcript per million mapped reads RPKM expression matrix was subsequently generated. Differential expression analysis was performed using the ‘limma’ R package (67). Gene-set enrichment analysis (GSEA) was performed using the GSEA software (68) to identify dysregulated canonical pathways curated in the Molecular Signatures Database (MSigDB-C2-CP v6.2) (FDR q<0.1). RNA-Seq data have been deposited in Gene Expression Omnibus (GEO) under the accession number GSE127854.
The GSE57338 microarray dataset of a total of 313 individuals which included 95 ischemic patients, 82 dilated cardiomyopathy patients, and 136 individuals with non-failing hearts, was downloaded from GEO. Differential expression analysis was performed using the ‘limma’ R package comparing ischemic vs non-failing and dilated vs non-failing. GSEA was performed using the GSEA software (PMID:16199517) to identify the dysregulated canonical pathways as described above. The overlap of differentially expressed gene and pathways (p<0.05) was then examined in relation to the mouse cardiomyocyte data. […]

In assay [2] the test system is mouse cardiac endothelial cells. Description: RNA-Seq of cardiac endothelial cells treated with ldCil. In kind it is cell-based.
Method: Primary mouse endothelial cells were isolated from the whole hearts of C57/BL6 3-7 day old mice. Hearts were removed, mechanically minced with scissors, and digested in pre-heated (37° C.) 10 ml 0.1% collagenase type I solution (Gibco Invitrogen) for 1 h. Usually 3 hearts were minced together for a single prep. The collagenase reaction was stopped by adding equal parts mouse lung endothelial cell (MLEC) media, and the digested tissue was homogenised in a dish by syringing up to 30 times with a 19 and 21-gauge needle, and then passed through a 70 μm pore-size cell strainer. Cells were centrifuged at 1500 rpm for 3 min, pellet was suspended and then incubated in a solution containing magnetic beads conjugated to a CD31 antibody (BD Pharmingen) to separate primary cardiac endothelial cells from the total cell population. Sorted cells were plated in T25 flasks coated with 0.1% gelatin, 10 μ/ml fibronectin and 30 μ/ml bovine collagen, suspended in mouse lung endothelial cell culture (MLEC) media and incubated at 37° C., 5% CO2. Cells were washed 3 or 4 times in PBS the next day to remove excess red blood cells and other cell-debris and growing medium applied. […]
RNA-Seq was performed by Barts and the London Genome Centre on the Illumina NextSeq 500 platform, generating on average ˜15-17 million paired-end reads of 76 bp in length per sample. After quality check using FastQC, raw reads were mapped to the mouse genome (mm10, Genome Reference Consortium GRCm38) in the strand-specific mode using HISAT2 (65). Number of uniquely aligned reads (q>10) to the exonic region of each gene were counted using HTSeq (66) based on the GenCode annotation version M16 (Ensembl v91). Only genes that achieved at least one read count per million reads (cpm) in at least four samples (i.e., number of samples per group) were kept. Conditional quantile normalisation (cqn) was then performed accounting for gene length and GC content, and a log2 transformed reads per kilobase of transcript per million mapped reads RPKM expression matrix was subsequently generated. […]
Assay [3] has as its system AAC model of heart failure. Description: Cardiac hypertrophy in AAC model (WGA cardiomyocyte perimeter, heart:body weight). To be noted: intervention mode, AAC surgery. It counts as in vivo, mouse. From the text:
Male C57BL6 mice (Charles River) underwent AAC surgery at 4-5 weeks of age (between 20 and 22 g). Mice were anaesthetised with isoflurane, placed in a supine position on the procedure table, and an incision made along the ventral underbelly, extending from the xiphoid process of the sternum, down to the groin to reveal the abdominal muscle. The abdominal muscle was then cut the same distance along the linea alba to allow easy reattachment of the two halves. The two sides of the abdominal muscles were clipped back to reveal the abdominal gastrointestinal organs, and these were carefully manoeuvred to expose the underlying abdominal aorta. […] Hearts were halved longitudinally and either snap frozen in liquid nitrogen (for immunohistochemistry) or stored in an RNA later stabilisation solution (for RT-quantitative PCR) (ThermoFisher Scientific, Hertfordshire, UK).
5 μm snap-frozen sections were fixed in 10% acetone, washed in phosphate buffered saline, PBS, blocked in 5% normal goat serum/PBS for 1 h at room temperature and incubated with WGA directly conjugated to Alexa Fluor 488 (Invitrogen) (1:100) in blocking buffer (5% normal goat serum/PBS) for 2 h at room temperature. […] Images were taken with a Zeiss Axioplan microscope, and the cardiomyocyte size was analysed with ImageJ™ software. 100-200 cells per heart were measured to determine cardiomyocyte size.

In assay [4] the test system is pathological angiogenesis. To be noted: cited from earlier work.
Setting [5] is: AngII vs AngII+ldCil, human failing vs non-failing.
The mark [6] stands for this setting: human idiopathic dilated cardiomyopathy vs non-failing.
Setting [7] is: human ischemic heart vs non-failing.
[8] abbreviates: low doses, 50 μg/kg in vivo or 2 nM in vitro.

For the compound `CC(C)[C@H]1C(=O)N[C@@H](CCCN=C(N)N)C(=O)NCC(=O)N[C@@H](CC(=O)O)C(=O)N[C@H](Cc2ccccc2)C(=O)N1C` [Cilengitide, c(f*VRGD)], the “transcriptomic alterations induced by AngII” value in assay [1] (1 μM AngII plus ldCil 20 nM) is given as “back to control treated cardiomyocyte levels”. For the same compound, in assay [1] (AngII plus ldCil), the “PI3K and Akt signalling pathways downregulated by AngII” value is reported as “fold change restoration of both these pathways are most highly expressed”; the “TCA and oxidative stress pathways increased by AngII” value is reported as “restored”. In addition, in assay [1] (setting [5]), the “downregulated genes concordant with human failing heart restored to non-failing human heart levels” value was determined as 13 genes and the “upregulated genes concordant with human failing heart restored to non-failing human heart levels” value is 8 genes. Further, the “AngII-induced differential expression of pathways (GSEA)” value in assay [1] (AngII+ldCil compared to control, FDR q>0.1) is given as “no longer significant”. In addition, in assay [1] (setting [6]), the “concordantly downregulated pathways restored to non-failing human heart profiles” value was determined as 8 pathways and the “concordantly upregulated pathways restored to non-failing human heart profiles” value turned out to be 4 pathways. Also, in assay [1] (setting [7]), the “concordant downregulated pathways restored” value is recorded as 5 pathways, the concordant pathways restored is reported as 6 pathways and the “concordant upregulated pathways restored” value was 1 pathways. Besides, the “concordantly differentially expressed genes” value in assay [2] (24 h and 48 h ldCil treatment vs control) stood at 54 genes. Moreover, in assay [2] (both 24 h and 48 h), the “expression of proangiogenic or cardioprotective regulators (Csf2rb, Eln, Nov, CCL7, Mt2, Socs2, Fgf23, Slc30a1, Col6a3, Mt1, Ggt5, Adam8)” value is “differentially upregulated”. In assay [2] (both timepoints), the “gene sets involved in mitosis, DNA repair and cell cycle (enrichment analysis)” value is “significant increases”. The “heart:body weight ratio” value in assay [3] is recorded as “blunted increases”. For the same compound, the “cardiomyocyte perimeter (WGA stained sections)” value in assay [3] (compared with vehicle) was “reduced”. The “chemotherapy efficacy in cancer models in vivo” value in assay [4] (ldCil with chemotherapy) is listed as “improve chemotherapy efficacy”. In addition, in assay [4] (setting [8]), the “effect on quiescent vasculature” value is reported as “no apparent effects” and the pathological angiogenesis entry is on record as “enhance pathological angiogenesis”.

(Values after patent publication US20220288156A1, “TREATMENT” (QUEEN MARY UNIVERSITY OF LONDON, priority 2019, published 2022).)
